Tests used:
[1] = test system: extracellular 5-HT and DA in the NAc; test: In vivo microdialysis in the NAc of freely moving mice
Protocol: All in vivo experiments were performed in adult mice (>6 weeks old). For the photometry and microdialysis experiments, which were carried out in Florida, male C57BL/6J mice from The Jackson Laboratory (Bar Harbor, ME, USA) were group-housed in polycarbonate cages (GM500, Tecniplast, Buguggiate, Italy) with lights on from 7 a.m. to 7 p.m. Food and water were provided ad libitum. Photometry and microdialysis experiments were performed in accordance with a protocol approved by the Institutional Animal Care and Use Committee at Florida Atlantic University. For the behavioral experiments, which were carried out in Vienna, C57BL/6N mice from Charles River (Sulzfeld, Germany) were group-housed in polycarbonate cages with lights on from 7 a.m. to 7 p.m. Food and water were provided ad libitum. Behavioral experiments were performed in accordance with a protocol approved by the Austrian national ethical committee on animal care and use (Bundesministerium für Wissenschaft und Forschung: BMWFW-66.009/0016-WF/V/3b/2015). All animal procedures were conducted in agreement with the ARRIVE guidelines and the U.K. Animal (Scientific Procedures) Act, 1986, and associated guidelines, EU Directive 2010/63/EU for animal experiments. Mice were given at least 1 week to acclimate before being used in any experiments.
Mice were anesthetized with isoflurane (5% induction, 2% maintenance) and placed into a stereotaxic frame (Kopf Instruments, Tujunga, CA, USA) oriented in the flat skull position. Ophthalmic ointment was applied to prevent drying of the eyes. Ketoprofen (10 mg kg^−1) was administered subcutaneously (s.c.), whereas bupivacaine and lidocaine were administered locally (s.c.; 100 µl of sterile saline containing 0.05% bupivacaine and 0.2% lidocaine) to the surgical site atop the head. A midline incision was made through the skin on the dorsal surface of the head to expose the skull. Fascia was removed, coordinates for the NAc were determined relative to bregma: anterior/posterior = 1.54 mm; medial/lateral = 0.7 mm; dorsal/ventral = −4.1 mm. A 1 mm burr hole was drilled through the skull. […]
Microdialysis was performed based on a previous publication. […] Dialysate samples were collected on ice and stored at −80 °C until they were analyzed using high-performance liquid chromatography with electrochemical detection. Drug-induced changes in extracellular DA and 5-HT were expressed as fold change compared to basal monoamine levels obtained during the first three pretreatment samples.

[2] = target: 5-HT2B receptor (Homo sapiens, UniProt P41595); design: method as in PMID 30610839; settings: concentrations as high as 7 µM; cited from earlier work
[3] = 5 mg kg-1 with or without fluoxetine 10 mg kg-1, repeated measures two-way ANOVA

Chain of 5-HT2B receptor (P41595 whole entry): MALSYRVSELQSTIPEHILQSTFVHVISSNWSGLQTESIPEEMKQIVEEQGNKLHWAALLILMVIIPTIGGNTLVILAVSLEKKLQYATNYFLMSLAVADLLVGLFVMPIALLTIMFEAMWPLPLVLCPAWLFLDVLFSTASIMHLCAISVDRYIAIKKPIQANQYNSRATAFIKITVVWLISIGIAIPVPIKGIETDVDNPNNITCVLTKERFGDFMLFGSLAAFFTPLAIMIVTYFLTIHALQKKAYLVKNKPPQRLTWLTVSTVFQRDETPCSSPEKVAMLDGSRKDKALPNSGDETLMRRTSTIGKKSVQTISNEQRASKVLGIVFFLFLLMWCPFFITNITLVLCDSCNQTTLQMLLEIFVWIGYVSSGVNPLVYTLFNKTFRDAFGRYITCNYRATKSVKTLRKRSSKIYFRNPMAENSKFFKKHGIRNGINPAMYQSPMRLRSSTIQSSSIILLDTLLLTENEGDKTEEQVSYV

| SMILES | dialysate 5-HT versus baseline ([1]; 5 mg kg-1 intraperitoneal, NAc) | effect of drug treatment (alone versus plus fluoxetine) on dialysate 5-HT [1, 3] | effect of drug treatment (alone versus plus fluoxetine) on dialysate DA [1, 3] | binding to the 5-HT2B receptor [2] | dialysate 5-HT with co-administered fluoxetine ([1]; 10 mg kg-1 intraperitoneal plus fluoxetine 10 mg kg-1) |
| --- | --- | --- | --- | --- | --- |
| Cc1ccc(C(=O)[C@H](C)N)cc1 [S-4-MC, 4-methylcathinone] | significantly elevated 5-HT in the dialysate | drug-treatment significantly affected 5-HT in the dialysate | but not DA | no binding | – |
| CN[C@@H](C)C(=O)c1ccc(C(F)(F)F)cc1 [S-4-TFMMC, 4-trifluoromethyl-N-methylcathinone] | – | – | – | – | fluoxetine markedly blunted the amount of dialysate 5-HT |

— PMC9645344, “Serotonin-releasing agents with reduced off-target effects” (Molecular Psychiatry, 2022)
